Assay results: US20210221848A1, “POLYMYXIN DERIVATIVES AND THEIR USE IN COMBINATION THERAPY TOGETHER WITH DIFFERENT ANTIBIOTICS” (priority 2014, published 2021)
Like-named read-outs stand apart in the source and are kept apart here.

Legend:
[1] = system: K. pneumoniae strains with elevated MICs to Polymyxin B; assay: MIC against strains with elevated MICs to Polymyxin B; format: cell-based, Klebsiella pneumoniae; settings: for MIC K. pneumoniae 062: strain 062, elevated MIC to Polymyxin B; for MIC K. pneumoniae 063: strain 063, elevated MIC to Polymyxin B; for MIC K. pneumoniae 064: strain 064, elevated MIC to Polymyxin B; for MIC K. pneumoniae 655: strain 655, elevated MIC to Polymyxin B
Procedure, shortened: (§1)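 Values are modal MICs where compounds were tested repeatedly, otherwise the lower of duplicates agreeing within 2-fold, with greater variation rejected. Inoculum: isolated colonies from 18-24 h Mueller-Hinton agar, suspended directly to 0.5 McFarland.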

[2] = system: E. coli; assay: MIC in 1:1 (wt:wt) combination with Rifampicin; format: cell-based, Escherichia coli; settings: 1:1 (wt:wt) with Rifampicin, total drug concentration
Protocol: (§2) The inoculum was prepared by making a direct suspension of isolated colonies (selected from an 18-24 hour Mueller-Hinton agar plate) adjusted to the 0.5 McFarland standard. […] The assays were performed in duplicate. […] In cases where the duplicate values varied by less than 2-fold, the lower of the two values is reported. If a variation of greater than 2-fold was observed, the assay was considered non-valid. Several of the compounds were subjected to multiple tests, and where this is the case, the MIC reflects the modal value obtained.
(§3) MIC values (microgram/mL) refer to the total drug concentration (i.e. test agent plus Rifampicin).

[3] = system: E. coli
[4] = system: Escherichia coli ATCC 25922; settings: mouse thigh, 3.4 mg/kg/dose free base IV at 1, 3.5 and 6 h post-infection, 9 h model
[5] = system: P. aeruginosa
[6] = system: A. baumannii
[7] = system: P. aeruginosa strains with elevated MICs to Polymyxin B; assay: MIC against strains with elevated MICs to Polymyxin B; format: cell-based, Pseudomonas aeruginosa; settings: for MIC P. aeruginosa 065: strain 065, elevated MIC to Polymyxin B; for MIC P. aeruginosa 066: strain 066, elevated MIC to Polymyxin B; for MIC P. aeruginosa 067: strain 067, elevated MIC to Polymyxin B
Procedure, shortened: as §1

[8] = system: K. pneumoniae; assay: MIC in 1:1 (wt:wt) combination with Rifampicin; format: cell-based, Klebsiella pneumoniae; settings: 1:1 (wt:wt) with Rifampicin, total drug concentration
Protocol: as §2, §3

[9] = system: K. pneumoniae; assay: MIC in the presence of a fixed concentration (2 μg/mL) of Rifampicin; format: cell-based, Klebsiella pneumoniae; settings: Rifampicin 2 μg/mL, Table 5C
[10] = system: Acinetobacter baumannii NCTC 13301; settings: mouse thigh, 16 h model
[11] = system: P. aeruginosa; assay: MIC in 1:1 (wt:wt) combination with Rifampicin; format: cell-based, Pseudomonas aeruginosa; settings: 1:1 (wt:wt) with Rifampicin, total drug concentration
Protocol: as §2, §3

[12] = system: HK-2 cell line; assay: In vitro renal cell toxicity assay (resazurin reduction); settings: HK-2 cell IC50 expressed relative to the value for polymyxin B
Protocol: MICs were determined as described herein. HK-2 cell IC50 values were determined as described herein. Values are reported relative to Polymyxin B.

[13] = system: E. coli strains with elevated MICs to Polymyxin B; assay: MIC against strains with elevated MICs to Polymyxin B; format: cell-based, Escherichia coli; settings: for MIC E. coli 058: strain 058, elevated MIC to Polymyxin B; for MIC E. coli 059: strain 059, elevated MIC to Polymyxin B; for MIC E. coli 060: strain 060, elevated MIC to Polymyxin B; for MIC E. coli 061: strain 061, elevated MIC to Polymyxin B
Procedure, shortened: as §1

[14] = system: Pseudomonas aeruginosa ATCC 27853; format: in vivo; settings: mouse lungs, P. aeruginosa ATCC 27853, SC at 2, 6 and 10 h post-infection, 16 h infection model
Protocol: Groups of 7 male neutropenic specific-pathogen-free CD-1 mice weighing 21.5-27.5 g were used. On Day 0, animals were infected with 0.04 mL inoculum by intranasal instillation into mouse nostrils and were kept in an upright position on a string rack for ˜10 min post-infection. […] At 2 h, the CFU count was determined from 3 mice and the remaining mice (7 per test compound groups) were treated with a subcutaneous injection of the drug at +2, 6 and 10 hr post-infection. Test compounds and the comparator polymyxin B were administered at four concentrations (2.6, 8.6, 17.2 and 25.8 mg/kg free base). The vehicle control group (7 mice) was treated with 0.9% saline for injection at 2, 6 and 10 h post-infection.
Sixteen hours after infection, the mice were euthanized humanely. The lungs of each animal were harvested, homogenized and quantitatively cultured onto CLED agar for CFU determination. Decrease of the total CFU compared to control counts at 16 h post-infection was determined for each dose group.
The in vivo efficacy of 4 compounds of the invention (D25, D36, D42 and D50) was evaluated in a mouse lung infection model of P. aeruginosa ATCC 27853. The model was setup as described above with the exception that groups of up to 8 mice were inoculated through intranasal instillation of ˜2.5×10^6 CFUs of P. aeruginosa isolate ATCC 27853 (1.0×10^5 CFU/lung). Test compounds were administered at two concentrations (equivalent to 4.3 and 17.2 mg/kg free base). Three dose levels of polymyxin B sulfate were used as comparator (equivalent to 4.3, 8.6 and 17.2 mg/kg free base).

Polymyxin B [PMB, reference compound]
MIC K. pneumoniae 062 ([1]; Table 6D): 128 micrograms/mL
MIC K. pneumoniae 062 ([1]; Table 6F): 128 micrograms/mL
MIC K. pneumoniae 063 ([1]; Table 6D): 32 micrograms/mL
MIC K. pneumoniae 063 ([1]; Table 6F): 32 micrograms/mL
MIC K. pneumoniae 064 ([1]; Table 6D): 8 micrograms/mL
MIC K. pneumoniae 064 ([1]; Table 6F): 8 micrograms/mL
MIC K. pneumoniae 655 ([1]; Table 6D): 32 micrograms/mL
MIC K. pneumoniae 655 ([1]; Table 6F): 32 micrograms/mL
MIC in 1:1 combination with rifampicin, E. coli 058 ([2]; E. coli 058): 1 microgram/mL
MIC in 1:1 combination with rifampicin, E. coli 059 ([2]; E. coli 059): ≤0.5 microgram/mL
MIC in 1:1 combination with rifampicin, E. coli 060 ([2]; E. coli 060): 1 microgram/mL
MIC in 1:1 combination with rifampicin, E. coli ATCC 25922 ([2]; E. coli ATCC 25922): ≤0.5 microgram/mL
MIC ([3]; E. coli ATCC 25922): 0.25 µg/mL
MIC, E. coli ATCC 25922 ([3]; E. coli ATCC 25922, absence of a second agent, Table 6B): 0.25 micrograms/mL
MIC ([3]; E. coli NCTC 13441): 0.25 µg/mL
MIC, E. coli NCTC 13441 ([3]; E. coli NCTC 13441, absence of a second agent, Table 6B): 0.25 micrograms/mL
MIC, E. coli ATCC 25922 ([3]; strain ATCC 25922, compound alone): 0.25 micrograms/mL
MIC E. coli CCUG 59342 ([3]; strain CCUG 59342, compound alone): 0.125 micrograms/mL
Mean log10 CFU reduction vs. control [4]: 4.32 log10 CFU
MIC ([5]; P. aeruginosa ATCC 27853): 0.5 µg/mL
MIC, P. aeruginosa ATCC 27853 ([5]; P. aeruginosa ATCC 27853, absence of a second agent, Table 6B): 0.5 micrograms/mL
MIC ([5]; P. aeruginosa CCUG 59347): 0.5 µg/mL
MIC, P. aeruginosa CCUG 59347 ([5]; P. aeruginosa CCUG 59347, absence of a second agent, Table 6B): 0.5 micrograms/mL
MIC, P. aeruginosa ATCC 27853 ([5]; strain ATCC 27853, compound alone): 0.5 micrograms/mL
MIC, P. aeruginosa CCUG 59347 ([5]; strain CCUG 59347, compound alone): 0.5 micrograms/mL
MIC ([6]; A. baumannii ATCC BAA-747): 0.25 µg/mL
MIC, A. baumannii ATCC BAA-747 ([6]; A. baumannii ATCC BAA-747, absence of a second agent, Table 6B): 0.25 micrograms/mL
MIC ([6]; A. baumannii NCTC 13424): 0.5 µg/mL
MIC, A. baumannii NCTC 13424 ([6]; A. baumannii NCTC 13424, absence of a second agent, Table 6B): 0.5 micrograms/mL
MIC, A. baumannii ATCC BAA-747 ([6]; strain ATCC BAA-747, compound alone): 0.25 micrograms/mL
MIC, A. baumannii NCTC 13424 ([6]; strain NCTC 13424, compound alone): 0.5 micrograms/mL
MIC P. aeruginosa 065 ([7]; Table 6D): 4 micrograms/mL
MIC P. aeruginosa 065 ([7]; Table 6F): 4 micrograms/mL
MIC P. aeruginosa 066 ([7]; Table 6D): 8 micrograms/mL
MIC P. aeruginosa 066 ([7]; Table 6F): 8 micrograms/mL
MIC P. aeruginosa 067 ([7]; Table 6D): 128 micrograms/mL
MIC P. aeruginosa 067 ([7]; Table 6F): 128 micrograms/mL
MIC in 1:1 combination with rifampicin, K. pneumoniae 062 ([8]; K. pneumoniae 062): 1 microgram/mL
MIC in 1:1 combination with rifampicin, K. pneumoniae CCUG 59348 ([8]; K. pneumoniae CCUG 59348): 1 microgram/mL
MIC in combination with Rifampicin, K. pneumoniae ATCC 4352 ([9]; K. pneumoniae ATCC 4352): 0.06 micrograms/mL
MIC in combination with Rifampicin, K. pneumoniae ATCC BAA-2146 ([9]; K. pneumoniae ATCC BAA-2146): 0.25 micrograms/mL
Mean log10 CFU reduction vs. control ([10]; 0.215 mg/kg/dose free base SC at 2, 6 and 10 h post-infection): 0.17 log10 CFU
Mean log10 CFU reduction vs. control ([10]; 0.86 mg/kg/dose free base SC at 2, 6 and 10 h post-infection): 1.64 log10 CFU
Mean log10 CFU reduction vs. control ([10]; 2.6 mg/kg/dose free base SC at 2, 6 and 10 h post-infection): 5.44 log10 CFU
Mean log10 CFU reduction vs. control ([10]; 8.6 mg/kg/dose free base SC at 2, 6 and 10 h post-infection): 6.15 log10 CFU
Mean log10 CFU reduction vs. control ([10]; 17.2 mg/kg/dose free base SC at 2, 6 and 10 h post-infection): 6.53 log10 CFU
MIC in 1:1 combination with rifampicin, P. aeruginosa 063 ([11]; P. aeruginosa 063): 16 microgram/mL
MIC in 1:1 combination with rifampicin, P. aeruginosa 068 ([11]; P. aeruginosa 068): 1 microgram/mL
HK-2 rel to PMB [12]: 1
MIC E. coli 058 ([13]; Table 6D): 4 micrograms/mL
MIC E. coli 058 ([13]; Table 6F): 4 micrograms/mL
MIC E. coli 059 ([13]; Table 6D): 4 micrograms/mL
MIC E. coli 059 ([13]; Table 6F): 4 micrograms/mL
MIC E. coli 060 ([13]; Table 6D): 4 micrograms/mL
MIC E. coli 060 ([13]; Table 6F): 4 micrograms/mL
MIC E. coli 061 ([13]; Table 6D): 16 micrograms/mL
MIC E. coli 061 ([13]; Table 6F): 16 micrograms/mL
Mean log10 CFU reduction vs. control ([14]; 8.6 mg/kg/dose free base): 1.46 log10 CFU
Mean log10 CFU reduction vs. control ([14]; 17.2 mg/kg/dose free base): 2.87 log10 CFU
